In one assay the test system is sperm. Kind of assay: Suppression of sperm mobility, manual counting of motile vs non-motile sperm. It is filed as cell-based, mouse. The conditions noted are these: incubated 1 hour at 37° C., 30% non-motile without inhibitor. Here is the method: The inhibition of sperm function, i.e. the inhibition of sperm mobility, was determined as follows:
PMCA4-deficient male mice were sacrificed and the epididymis of each was prepared. These tissues were placed into 2 ml of a sperm preparation medium (“Sperm Preparation Medium” from the MediCult a/s Company, Möllehaven 12, 4040 Jyllinge, Denmark, comprising: Earle's balanced saline solution, sodium pyruvate, synthetic serum substitute, IIEPES [hydroxy-ethyl-piperazine ethanesulphonic acid], sodium bicarbonate, human serum albumen; penicillin 50,000 IU/liter and streptomycin 50 mg/litre; Kahn, J. A., Human Reproduction 8/9, pages 1414-1419, 1993; Lähteenmaki, A., Human Reproduction 10/1, pages 142-147, 1995) and a subsequent incision was made using a sterile scalpel. All functioning sperm were allowed 15 minutes to swim out of the epididymis. The supernatant containing these sperm was removed and mixed with 500 μl each of increasing concentrations of 5- and 6-carboxyeosindiacetate succinimidyl ester (CE). Following this step, the sperm were incubated for 1 hour at 37° C. CE diffuses into the sperm during this time; the ester is hydrolyzed on the intracellular level. Afterwards, the remaining motile sperm were counted in relation to the non-motile ones.

For a further assay, the system named is normal sperm. Nature of the assay: Inhibition of sperm motility evaluated automatically with the CASA System 4.2. It is filed as cell-based, mouse. Conditions: Group C: normal sperm, 45 minutes after preparation, 37° C., 30 minutes with 20 μM inhibitor. On the procedure: PMCA4-deficient male mice were sacrificed and the epididymis of each was prepared. These tissues were placed into 2 ml of a sperm preparation medium (“Sperm Preparation Medium” from the MediCult a/s Company, Möllehaven 12, 4040 Jyllinge, Denmark, comprising: Earle's balanced saline solution, sodium pyruvate, synthetic serum substitute, IIEPES [hydroxy-ethyl-piperazine ethanesulphonic acid], sodium bicarbonate, human serum albumen; penicillin 50,000 IU/liter and streptomycin 50 mg/litre; Kahn, J. A., Human Reproduction 8/9, pages 1414-1419, 1993; Lähteenmaki, A., Human Reproduction 10/1, pages 142-147, 1995) and a subsequent incision was made using a sterile scalpel. All functioning sperm were allowed 15 minutes to swim out of the epididymis. […] Afterwards, the remaining motile sperm were counted in relation to the non-motile ones.
The inhibition of sperm motility was further evaluated automatically using the CASA System 4.2 from the medeaLAB Company, Erlangen, Germany. […]
For the above automated experimental protocol, the incubation time (compared to manual counting) was shortened (only 30 minutes instead of 1 hour) and the software also recorded non-meaningful objects that were present in the sample, such objects could be readily excluded with manual counting.

For another assay, the system named is PMCA. Conditions: in vitro; cited from earlier work.

Consider two substances from patent US20120027815A1, “USE OF PLASMA MEMBRANE CALCIUM ATPASE (PMCA) INHIBITORS TO INHIBIT SPERM MOBILITY” (priority 2003, published 2012).

“5- and 6-carboxyeosindiacetate succinimidyl ester”: the results for the Non-motile sperm in the assay with sperm (CE concentration 5 μM), in the assay with sperm (CE concentration 20 μM) and with sperm (CE concentration 100 μM) were 90%, 95% and 97%, respectively. Moreover, the “locally mobile or non-motile” value with normal sperm (untreated Group A 27%) came out at 78%. The Progressive motility in the assay with normal sperm (untreated Group A 73%) is given as 22%.

“Caloxin 2A1: polypeptide with the amino acid sequence VSNSNWPSFPSSGGG, acts extracellularly on PMCA”: in the assay on PMCA, the “Binding to PMCA and influence on PMCA function” value was “binds extra-cellularly to PMCA and has an inhibitory influence on the function of the PMCA”.
